Experimental data published in PMC5616206 (Toxicology Reports, 2016).

Test: Toxicokinetics of S9229 in the 28-day rat study
Format: in vivo, Sprague-Dawley rats
Settings: for AUC0-24hr Ratio / Cmax Ratio: vs 10 mg/kg dose; for AUC(0-t) / Cmax / Tmax / half-life: rat, plasma, po; for AUC(0-t): AUC0-24hr
[1] = female, Sprague-Dawley (Crl:CD(SD)), 10 mg/kg, Day 1, 10 mg/kg bw, F
[2] = female, Sprague-Dawley (Crl:CD(SD)), 30 mg/kg, Day 1, 30 mg/kg bw, F
[3] = female, Sprague-Dawley (Crl:CD(SD)), 100 mg/kg, Day 1, 100 mg/kg bw, F
[4] = female, Sprague-Dawley (Crl:CD(SD)), 100 mg/kg, Day 28, 100 mg/kg bw, F
[5] = female, Sprague-Dawley [Crl:CD(SD)], 10 mg/kg, Day 28, 10 mg/kg bw, F
[6] = female, Sprague-Dawley [Crl:CD(SD)], 30 mg/kg, Day 28, 30 mg/kg bw, F
[7] = male, Sprague-Dawley (Crl:CD(SD)), 10 mg/kg, Day 1, 10 mg/kg bw, M
[8] = male, Sprague-Dawley (Crl:CD(SD)), 10 mg/kg, Day 28, 10 mg/kg bw, M
[9] = male, Sprague-Dawley (Crl:CD(SD)), 30 mg/kg, Day 1, 30 mg/kg bw, M
[10] = male, Sprague-Dawley (Crl:CD(SD)), 100 mg/kg, Day 1, 100 mg/kg bw, M
[11] = male, Sprague-Dawley (Crl:CD(SD)), 100 mg/kg, Day 28, 100 mg/kg bw, M
[12] = male, Sprague-Dawley [Crl:CD(SD)], 30 mg/kg, Day 28, 30 mg/kg bw, M

In the case of `COC[C@@H](CC(C)C)NC(=O)c1ccc(C)c(C)c1` [S9229, (R)-N-(1-methoxy-4-methylpentan-2-yl)-3,4-dimethylbenzamide], the “AUC0-24hr Ratio” value (Day 1, 10 mg/kg bw, F) is reported as 1, the “Cmax Ratio” value (Day 1, 10 mg/kg bw, F) is reported as 1 and the “AUC0-24hr Ratio” value (Day 1, 10 mg/kg bw, M) is reported as 1. For the same compound, the “Cmax Ratio” value (Day 1, 10 mg/kg bw, M) was 1, the “AUC0-24hr Ratio” value (Day 1, 30 mg/kg bw, F) was 1.11 and the “Cmax Ratio” value (Day 1, 30 mg/kg bw, F) was 0.55. For the same compound, the “AUC0-24hr Ratio” value (Day 1, 30 mg/kg bw, M) was 6.62, the “Cmax Ratio” value (Day 1, 30 mg/kg bw, M) was 7.06 and the “AUC0-24hr Ratio” value (Day 1, 100 mg/kg bw, F) was 23.4. The “Cmax Ratio” value (Day 1, 100 mg/kg bw, F) was 22.8, the “AUC0-24hr Ratio” value (Day 1, 100 mg/kg bw, M) was 48.3 and the “Cmax Ratio” value (Day 1, 100 mg/kg bw, M) was 61.8. The “AUC0-24hr Ratio” value (Day 28, 10 mg/kg bw, F) was 1, the “Cmax Ratio” value (Day 28, 10 mg/kg bw, F) was 1 and the “AUC0-24hr Ratio” value (Day 28, 10 mg/kg bw, M) was 1. The “Cmax Ratio” value (Day 28, 10 mg/kg bw, M) was 1, the “AUC0-24hr Ratio” value (Day 28, 30 mg/kg bw, F) was 6.90 and the “Cmax Ratio” value (Day 28, 30 mg/kg bw, F) was 4.85. The “AUC0-24hr Ratio” value (Day 28, 30 mg/kg bw, M) was 10.4, the “Cmax Ratio” value (Day 28, 30 mg/kg bw, M) was 5.67 and the “AUC0-24hr Ratio” value (Day 28, 100 mg/kg bw, F) was 68.6. The “Cmax Ratio” value (Day 28, 100 mg/kg bw, F) was 57.2, the “AUC0-24hr Ratio” value (Day 28, 100 mg/kg bw, M) was 71.1 and the “Cmax Ratio” value (Day 28, 100 mg/kg bw, M) was 33.6. For the same compound, the AUC(0-t) [1] was 11.4 ± 11.1 ng·h/mL, the Cmax [1] was 15.6 ± 17 ng/mL and the Tmax [1] was 30 min. For the same compound, the AUC(0-t) [2] was 12.6 ± 2.8 ng·h/mL, the Cmax [2] was 8.6 ± 2.6 ng/mL and the Tmax [2] was 30 min. The Tmax (female, Sprague-Dawley (Crl:CD(SD)), 30 mg/kg, Day 28, 30 mg/kg bw, F) was 60 min, the half-life (female, Sprague-Dawley (Crl:CD(SD)), 30 mg/kg, t1/2, Day 1, 30 mg/kg bw, F) was 57 ± 28.8 min and the half-life (female, Sprague-Dawley (Crl:CD(SD)), 30 mg/kg, t1/2, Day 28, 30 mg/kg bw, F) was 130 ± 78 min. The AUC(0-t) [3] was 267 ± 174 ng·h/mL, the AUC(0-t) [4] was 144 ± 45.1 ng·h/mL and the Cmax [3] was 356 ± 256 ng/mL. It also gave a Cmax [4] of 74.4 ± 31.7 ng/mL, a Tmax [3] of 30 min and a Tmax [4] of 60 min. It also gave a half-life (female, Sprague-Dawley (Crl:CD(SD)), 100 mg/kg, t1/2, Day 1, 100 mg/kg bw, F) of 58.2 ± 21.6 min, a half-life (female, Sprague-Dawley (Crl:CD(SD)), 100 mg/kg, t1/2, Day 28, 100 mg/kg bw, F) of 58.8 ± 6 min and an AUC(0-t) [5] of 2.1 ± 1.9 ng·h/mL. It also gave a Cmax [5] of 1.3 ± 1.3 ng/mL, a Tmax [5] of 60 min and an AUC(0-t) [6] of 14.5 ± 4.3 ng·h/mL. The Cmax [6] was 6.3 ± 3.2 ng/mL, the AUC(0-t) [7] was 3.9 ± 0.8 ng·h/mL and the AUC(0-t) [8] was 1.5 ± 0.6 ng·h/mL. It also gave a Cmax [7] of 3.2 ± 1.3 ng/mL, a Cmax [8] of 1.2 ± 0.3 ng/mL and a Tmax [7] of 30 min. For the same compound, the Tmax [8] was 100 min, the half-life (male, Sprague-Dawley (Crl:CD(SD)), 10 mg/kg, t1/2, Day 1, 10 mg/kg bw, M) was 54 ± 13.8 min and the AUC(0-t) [9] was 25.8 ± 4.3 ng·h/mL. It also gave a Cmax [9] of 22.6 ± 10.5 ng/mL, a Tmax [9] of 30 min and a half-life (male, Sprague-Dawley (Crl:CD(SD)), 30 mg/kg, t1/2, Day 1, 30 mg/kg bw, M) of 69.6 ± 27.6 min. It also gave an AUC(0-t) [10] of 188 ± 78.8 ng·h/mL, an AUC(0-t) [11] of 107 ± 41.6 ng·h/mL and a Cmax [10] of 198 ± 98.5 ng/mL. For the same compound, the Cmax [11] was 40.3 ± 20.5 ng/mL, the Tmax [10] was 30 min and the Tmax [11] was 60 min. It also gave a half-life (male, Sprague-Dawley (Crl:CD(SD)), 100 mg/kg, t1/2, Day 1, 100 mg/kg bw, M) of 62.4 ± 2.4 min, a half-life (male, Sprague-Dawley (Crl:CD(SD)), 100 mg/kg, t1/2, Day 28, 100 mg/kg bw, M) of 83.4 ± 16.8 min and an AUC(0-t) [12] of 15.6 ± 2.7 ng·h/mL. It also gave a Cmax [12] of 6.8 ± 2.3 ng/mL, a Tmax [12] of 60 min and a half-life (male, Sprague-Dawley [Crl:CD(SD)], 30 mg/kg, t1/2, Day 28, 30 mg/kg bw, M) of 85.2 ± 16.8 min.
